Test results reported in publication PMC6147133, “The Toxoplasma gondii Active Serine Hydrolase 4 Regulates Parasite Division and Intravacuolar Parasite Architecture” (mSphere, 2018).

Biological target: T1, rASH4 (ASH4) (Toxoplasma gondii, UniProt A0A125YZ56)
T1 construct: full-length ORF from RH cDNA, N-terminal 6xHis tag (pET-28A, pIF22), E. coli BL21-CodonPlus(DE3)-RIL; active-site S124, G2 myristoylation site
T1 sequence (A0A125YZ56 1-260): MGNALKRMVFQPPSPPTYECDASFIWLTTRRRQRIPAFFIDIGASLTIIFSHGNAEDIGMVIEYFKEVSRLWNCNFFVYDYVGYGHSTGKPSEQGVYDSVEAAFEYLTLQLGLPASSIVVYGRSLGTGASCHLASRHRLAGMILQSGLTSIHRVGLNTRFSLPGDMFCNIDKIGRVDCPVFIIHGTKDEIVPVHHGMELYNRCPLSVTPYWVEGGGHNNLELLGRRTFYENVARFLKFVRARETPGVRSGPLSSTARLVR
Experiment: fluorogenic hydrolysis assay
Format: biochemical
Settings: 10 uM substrate, 150 nM enzyme

CC(=O)Oc1ccc2c(C)cc(=O)oc2c1 [4MU-acetate, 4-methyl-2-oxo-2H-chromen-7-yl acetate]
fluorogenic hydrolysis assay: with the two-carbon acetyl ester having the highest rate of hydrolysis
